According to patent US8211933B2, “3.3.0 bicyclic GlyT1 inhibitors and methods of making and using same” (Vanderbilt University, priority 2008, dated 2012):
Read-outs that look alike come from different tables or passages of the source.

Biological target: T1, GlyT1 (Homo sapiens, UniProt P48067)
T1 construct: Human placental choriocarcinoma cells endogenously expressing GlyT1 can be cultured using standard conditions; host or cells: JAR human placental choriocarcinoma cells
T1 sequence (P48067 1-706): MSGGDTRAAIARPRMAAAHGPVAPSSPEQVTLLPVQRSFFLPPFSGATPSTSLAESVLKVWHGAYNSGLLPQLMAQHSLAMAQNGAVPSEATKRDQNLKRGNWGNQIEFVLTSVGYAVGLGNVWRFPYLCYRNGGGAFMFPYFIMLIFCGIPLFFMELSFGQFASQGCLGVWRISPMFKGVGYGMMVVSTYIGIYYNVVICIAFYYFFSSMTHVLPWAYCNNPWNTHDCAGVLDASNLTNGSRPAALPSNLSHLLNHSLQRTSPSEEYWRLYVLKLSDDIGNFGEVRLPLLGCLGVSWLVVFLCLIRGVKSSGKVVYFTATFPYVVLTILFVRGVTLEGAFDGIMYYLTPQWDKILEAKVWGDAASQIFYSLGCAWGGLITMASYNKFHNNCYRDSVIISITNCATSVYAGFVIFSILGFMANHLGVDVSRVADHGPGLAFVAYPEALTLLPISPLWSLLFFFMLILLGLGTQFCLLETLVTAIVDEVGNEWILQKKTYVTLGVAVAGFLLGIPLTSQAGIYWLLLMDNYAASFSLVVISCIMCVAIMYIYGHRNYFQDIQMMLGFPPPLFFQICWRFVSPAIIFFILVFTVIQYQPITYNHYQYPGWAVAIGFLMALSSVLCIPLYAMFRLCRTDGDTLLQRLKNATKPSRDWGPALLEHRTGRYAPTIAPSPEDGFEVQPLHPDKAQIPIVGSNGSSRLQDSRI
Assay: [14C]-glycine uptake in JAR cells endogenously expressing GlyT1 (Cytostar T scintillation proximity)
Format: cell-based
Conditions: for IC50: read-out: Potency (IC50)
Protocol: Human placental choriocarcinoma cells endogenously expressing GlyT1 can be cultured using standard conditions. Cells can then be grown at 37° C. in a humidified atmosphere 40-48 hours before the assay. Culture medium can be removed from the culture plate, and cells can be incubated with an amount of TBlA buffer with or without the compounds of the present invention for a sufficient period of time. Then an amount of [^14C]-glycine diluted with TBlA can be added to each well. After incubation the microplates can be sealed and counted. Non-specific uptake of [^14C]-glycine can be determined in the presence of unlabeled glycine. To determine potencies, a range of concentrations of the compounds of the present invention can be added to the cells, followed by the fixed concentration of [^14C]-glycine. The concentration of the present compound that inhibited half of the specific uptake of [^14C]glycine (IC50 value) can be determined from the assay data by non-linear curve fitting.
The procedure used was analogous to that disclosed in Williams, J. B.; Mallorga P. J.; Lemaire W.; Williams D. L.; Na S.; Patel S.; Conn J. P.; Pettibone D. J.; Austin C.; Sur C.; “Development of a scintillation proximity assay for analysis of Na+/Cl−-dependent neurotransmitter transporter activity,” ANAL. BIOCHEM.
Cells were plated at a density of 1.3×10^4 cells/well and grown at 37° C. in a humidified atmosphere of 5% CO2 for 40-48 h. Culture medium was removed from the Cytostar T plate and JAR cells were incubated with 30 μl A of TBlA buffer (120 mM NaC1, 2 mM KCl, 1 mM CaCl2, 1 mM MgCl2, 10 mM Hepes, 5 mM L-alanine, pH 7.5 adjusted with 1 M Tris base) with or without multiple concentrations of test compound (added at 2× final concentration) for 1 min. Then 30 μl of [^14C]-glycine (Perkin-Elmer) diluted in TBlA was added to each well to give a final concentration of 10 μM. Cytostar T plates were then incubated in the dark at room temperature for 3 h, sealed with opaque white bottom plate seals (Perkin-Elmer) and clear top plate seals (Topseal A, Perkin-Elmer), and were counted on a Top Count (Packard). Glycine uptake was determined by measuring radioactivity in each well and plotted as a function of concentration of test compound. […] Nonspecific uptake of [^14C]-glycine was determined in the presence of 10 mM cold glycine. [^14C]-taurine (American Radiolabeled Chemicals, Inc.) uptake experiments were performed according to the same protocol except that 10 mM cold taurine was used to determine nonspecific uptake. […] COS-7 cells were transiently transfected with the human GlyT2 cDNA (Origene Technologies Inc., SC303452) using Fugene 6 (Roche) according to the manufacturer's instructions in Dulbecco's modified Eagle's medium (DMEM, Invitrogen) containing 10% Fetal Bovine Serum, 10 mM HEPES, 1 mM sodium pyruvate, penicillin (100 μg/ml), and streptomycin (100 μg/ml). The following day, the cells were plated at a density of 5×10^5 cells/well in Cytostar T plates and maintained at 37° C. in a humidified atmosphere of 5% CO2 for 24 h. GlyT2 glycine uptake experiments were performed according to the same protocol previously described.

Row | SMILES | IC50 [nM] | also measured
1 | Cn1cnc(S(=O)(=O)N2CC3CCC(NC(=O)c4ccccc4C(F)(F)F)C3C2)c1 (centres unmarked) [Compound 7d, N-(2-(1-methyl-1H-imidazol-4-ylsulfonyl)octahydrocyclopenta[c]pyrrol-4-y1)-2-(trifluoromethyl)benzamide] | 78 | –
2 | Cn1cnc(S(=O)(=O)N2CC3CCC(NC(=O)c4ccc(Cl)cc4Cl)C3C2)c1 (centres unmarked) [Compound 5b, 2,4-dichloro-N-(2-(1-methyl-1H-imidazol-4-ylsulfonyl)octahydrocyclopenta[c]pyrrol-4-yl)benzamide] | – | Potency (IC50) (result in words, inhibition of [14C]-glycine uptake (10 μM), JAR cells, 3 h): Inactive
3 | Cn1cnc(S(=O)(=O)N2CC3CCC(NC(=O)c4ccc(F)c(F)c4)C3C2)c1 (centres unmarked) [Compound 7j, 3,4-difluoro-N-(2-(1-methyl-1H-imidazol-4-ylsulfonyl)octahydrocyclopenta[c]pyrrol-4-yl)benzamide] | – | IC50 (inhibition of [14C]-glycine uptake (10 μM), JAR cells, 3 h): 903 nM
4 | Cn1cnc(S(=O)(=O)N2CC3CCC(NC(=O)c4ccc(F)cc4F)C3C2)c1 (centres unmarked) [Compound 7e, 2,4-difluoro-N-(2-(1-methy1-1H-imidazol-4-ylsulfonyl)octahydrocyclopenta[c]pyrrol-4-yl)benzamide] | 925 | –
5 | Cn1cnc(S(=O)(=O)N2CC3CCC(NC(=O)c4ccc(Cl)cc4)C3C2)c1 (centres unmarked) [Compound 7c, 4-chloro-N-(2-(1-methyl-1H-imidazol-4-ylsulfonyl)octahydrocyclopenta[c]pyrrol-4-yl)benzamide] | 1030 | –
6 | Cn1cnc(S(=O)(=O)N2CC3CCC(NC(=O)c4ccccc4Cl)C3C2)c1 (centres unmarked) [Compound 7b, 2-chloro-N-(2-(1-methyl-1H-imidazol-4-ylsulfonyl)octahydrocyclopenta[c]pyrrol-4-yl)benzamide] | 101 | –

Further lines, with some results ahead:

Row | IC50 [nM] | SMILES | also measured
7 | 630 | Cn1cnc(S(=O)(=O)N2CC3CCC(NC(=O)c4c(F)cccc4F)C3C2)c1 (centres unmarked) [Compound 7i, 2,6-difluoro-N-(2-(1-methy1-1H-imidazol-4-ylsulfonyl)octahydrocyclopenta[c]pyrrol-4-yl)benzamide] | –
8 | 2200 | Cn1cnc(S(=O)(=O)N2CC3CCC(NC(=O)c4ccc(F)cc4)C3C2)c1 (centres unmarked) [Compound 7h, 4-fluoro-N-(2-(1-methyl-1H-imidazol-4-ylsulfonyl)octahydrocyclopenta[c]pyrrol-4-yl)benzamide] | –
9 | 7000 | CCCS(=O)(=O)N1CC2CCC(NC(=O)c3ccc(Cl)cc3Cl)C2C1 (centres unmarked) [Compound 71, 2,4-dichloro-N-(2-(propylsulfonyl)octahydrocyclopenta[c]pyrrol-4-yl)benzamide] | –
10 | 891 | Cn1cnc(S(=O)(=O)N2CC3CCC(NC(=O)c4ccc(Cl)c(Cl)c4)C3C2)c1 (centres unmarked) [Compound 7g, 3,4-dichloro-N-(2-(1-methyl-1H-imidazol-4-ylsulfonyl)octahydrocyclopenta[c]pyrrol-4-yl)benzamide] | –
11 | 1800 | Cn1cnc(S(=O)(=O)N2CC3CCC(NC(=O)c4ccccc4F)C3C2)c1 (centres unmarked) [Compound 7f, 2-fluoro-N-(2-(1-methyl-1H-imidazol-4-ylsulfonyl)octahydrocyclopenta[c]pyrrol-4-yl)benzamide] | –
